The target of the experiment is T1, FAK (Homo sapiens, UniProt Q05397).
T1 construct: evaluate the effects of the compounds of the present disclosure on the expression of target proteins in cells; endogenous in cells
T1 sequence (Q05397 whole entry, species assumed): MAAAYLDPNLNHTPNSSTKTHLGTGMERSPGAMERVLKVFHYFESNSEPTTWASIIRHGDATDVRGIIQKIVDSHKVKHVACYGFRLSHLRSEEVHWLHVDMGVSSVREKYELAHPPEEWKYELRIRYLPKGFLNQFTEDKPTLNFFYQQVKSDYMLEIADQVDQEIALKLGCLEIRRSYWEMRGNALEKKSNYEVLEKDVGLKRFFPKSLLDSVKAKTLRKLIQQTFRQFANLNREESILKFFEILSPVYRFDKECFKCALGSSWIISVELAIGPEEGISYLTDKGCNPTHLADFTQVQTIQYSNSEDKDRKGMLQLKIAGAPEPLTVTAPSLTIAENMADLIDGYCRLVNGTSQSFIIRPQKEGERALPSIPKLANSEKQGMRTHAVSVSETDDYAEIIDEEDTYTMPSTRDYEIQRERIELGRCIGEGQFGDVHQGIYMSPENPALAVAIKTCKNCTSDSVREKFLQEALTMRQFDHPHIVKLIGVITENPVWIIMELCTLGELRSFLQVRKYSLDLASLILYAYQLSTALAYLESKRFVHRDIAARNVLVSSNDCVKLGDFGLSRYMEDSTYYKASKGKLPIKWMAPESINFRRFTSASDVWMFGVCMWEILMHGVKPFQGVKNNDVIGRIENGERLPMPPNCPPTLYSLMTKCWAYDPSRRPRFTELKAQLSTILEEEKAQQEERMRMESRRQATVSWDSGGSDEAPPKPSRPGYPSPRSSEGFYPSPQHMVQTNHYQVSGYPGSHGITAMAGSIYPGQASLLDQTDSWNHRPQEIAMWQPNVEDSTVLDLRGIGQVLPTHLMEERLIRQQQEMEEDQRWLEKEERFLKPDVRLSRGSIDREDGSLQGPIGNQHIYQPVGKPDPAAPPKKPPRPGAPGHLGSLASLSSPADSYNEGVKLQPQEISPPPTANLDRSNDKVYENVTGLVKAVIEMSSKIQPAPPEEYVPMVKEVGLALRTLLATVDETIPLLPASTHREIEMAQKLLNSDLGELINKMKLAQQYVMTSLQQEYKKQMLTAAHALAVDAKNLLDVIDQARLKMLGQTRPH
The experiment is described as follows: Western blot degradation of FAK. Format: cell-based. The conditions noted are these: Table D7. Here is the method:
Conventional Western blot assay was performed to evaluate the effects of the compounds of the present disclosure on the expression of target proteins in cells.
(1) Cell Seeding and Protein Harvesting: The selected cells were processed according to the cell seeding procedure and protein harvesting procedure in Table III-2. Table III-2 Cell Seeding and Protein Harvesting Procedures
(2) To the collected supernatant, 5X SDS sample loading buffer was added, followed by denaturation at 95°C for 5 minutes. The denatured samples were then separated by SDS-PAGE electrophoresis on a polyacrylamide gel. Proteins were transferred to a nitrocellulose membrane (0.45 µm NC membrane), blocked with blocking buffer at room temperature for 1 hour, and subjected to antibody incubation and development procedures according to the antibody manufacturer's instructions (Cell Signaling Technology).
Half-Maximal Degradation Concentration value (the drug concentration required for degrading proteins by 50%, abbreviated as DC50) reads method: comparing the grayscale values of Western blot bands from drug-treated samples with those from blank DMSO-treated controls, and identifying the drug concentration range at which the grayscale value is half that of the DMSO-treated control bands.
DC50 values can be calculated using ImageJ software to measure grayscale values of Western blot bands from drug-treated samples. The concentration-response curve is fitted to estimate the drug concentration corresponding to half the grayscale value.
Target protein remaining (%) refers to the percentage of target protein remaining in hPBMC cells after treatment with protein degrader compounds.
Calculation method for target protein remaining (%): Use ImageJ software to measure grayscale values of Western blot bands from drug (protein degrader)-treated samples. The grayscale value of drug-treated bands is divided by that of internal control protein bands, and the resulting quotient is normalized to obtain the relative percentage of remaining target protein after protein degrader treatment.
Target protein degradation rate (%) = 100% - target protein remaining (%).
Background: Immunoblotting shows a protein as a band on a membrane.
Turning to `CNC(=O)c1ccccc1Nc1cc(Nc2ccc(N3CCC(N(C)Cc4ccc(C5CCC(=O)NC5=O)cn4)CC3)cc2OC)ncc1C(F)(F)F` (centres unmarked) [GT-07658, 2-((2-((4-(4-(((5-(2,6-dioxopiperidin-3-yl)pyridin-2-yl)methyl)(methyl)amino)piperidin-1-yl)-2-methoxyphenyl)amino)-5-(trifluoromethyl)pyridin-4-yl)amino)-N-methylbenzamide], the “Degradation of substrate protein FAK (substrate protein remaining %)” value (from here on “Degradation … (substrate protein remaining %)”) was “A (A is defined as 0% ≤ substrate protein remaining % ≤ 80%)”.

For the compound `CNC(=O)c1ccccc1Nc1cc(Nc2cc(C)c(C3CCN(Cc4ccc(C5CCC(=O)NC5=O)c(F)c4)CC3)cc2OC(C)C)ncc1C(F)(F)F` (centres unmarked) [GT-04085, 2-((2-((4-(1-(4-(2,6-dioxopiperidin-3-yl)-3-fluorobenzyl)piperidin-4-yl)-2-isopropoxy-5-methylphenyl)amino)-5-(trifluoromethyl)pyridin-4-yl)amino)-N-methylbenzamide], the “Degradation … (substrate protein remaining %)” value is “A (A is defined as 0% ≤ substrate protein remaining % ≤ 80%)”.

As to `CNC(=O)c1ccccc1Nc1cc(Nc2cc(C)c(C3CCN(Cc4cnc(N5CCC(=O)NC5=O)cn4)CC3)cc2OC(C)C)ncc1C(F)(F)F` [GT-07680, 2-((2-((4-(1-((5-(2,4-dioxotetrahydropyrimidin-1(2H)-yl)pyrazin-2-yl)methyl)piperidin-4-yl)-2-isopropoxy-5-methylphenyl)amino)-5-(trifluoromethyl)pyridin-4-yl)amino)-N-methylbenzamide], the “Degradation … (substrate protein remaining %)” value is listed as “A (A is defined as 0% ≤ substrate protein remaining % ≤ 80%)”.

Take `CNC(=O)c1ccccc1Nc1cc(Nc2cc(C)c(C3CCN(Cc4cncc(N5CCC(=O)NC5=O)c4)CC3)cc2OC(C)C)ncc1C(F)(F)F` [GT-07674, 2-((2-((4-(1-((5-(2,4-dioxotetrahydropyrimidin-1(2H)-yl)pyridin-3-yl)methyl)piperidin-4-yl)-2-isopropoxy-5-methylphenyl)amino)-5-(trifluoromethyl)pyridin-4-yl)amino)-N-methylbenzamide]: the “Degradation … (substrate protein remaining %)” value is on record as “A (A is defined as 0% ≤ substrate protein remaining % ≤ 80%)”. The value for `CNC(=O)c1ccccc1Nc1cc(Nc2ccc(N3CCC(N(C)Cc4ccnc(N5CCC(=O)NC5=O)c4)CC3)cc2OC)ncc1C(F)(F)F` [GT-07654, 2-((2-((4-(4-(((2-(2,4-dioxotetrahydropyrimidin-1(2H)-yl)pyridin-4-yl)methyl)(methyl)amino)piperidin-1-yl)-2-methoxyphenyl)amino)-5-(trifluoromethyl)pyridin-4-yl)amino)-N-methylbenzamide] was “A (A is defined as 0% ≤ substrate protein remaining % ≤ 80%)”. Take `CNC(=O)c1ccccc1Nc1cc(Nc2ccc(N3CCC(N(C)Cc4ccc(N5CCC(=O)NC5=O)cc4)CC3)cc2OC)ncc1C(F)(F)F` [GT-07649, 2-((2-((4-(4-((4-(2,4-dioxotetrahydropyrimidin-1(2H)-yl)benzyl)(methyl)amino)piperidin-1-yl)-2-methoxyphenyl)amino)-5-(trifluoromethyl)pyridin-4-yl)amino)-N-methylbenzamide]: the “Degradation … (substrate protein remaining %)” value is given as “A (A is defined as 0% ≤ substrate protein remaining % ≤ 80%)”. The entry for `CS(=O)(=O)c1cccc(CNc2nc(Nc3ccc(N4CCN(Cc5cccc(N6CCC(=O)NC6=O)c5)CC4)cc3)ncc2C(F)(F)F)c1` [GT-04178, 1-(3-((4-(4-((4-((3-(methylsulfonyl)benzyl)amino)-5-(trifluoromethyl)pyrimidin-2-yl)amino)phenyl)piperazin-1-yl)methyl)phenyl)dihydropyr imidine-2,4(1H,3H)-dione] is “A (A is defined as 0% ≤ substrate protein remaining % ≤ 80%)”; for `CNC(=O)c1ccccc1Nc1cc(Nc2ccc(N3CCC(N(C)Cc4cccc(N5CCC(=O)NC5=O)c4)CC3)cc2OC)ncc1C(F)(F)F` [GT-07650, 2-((2-((4-(4-((3-(2,4-dioxotetrahydropyrimidin-1(2H)-yl)benzyl)(methyl)amino)piperidin-1-yl)-2-methoxyphenyl)amino)-5-(trifluoromethyl)pyridin-4-yl)amino)-N-methylbenzamide] it is “A (A is defined as 0% ≤ substrate protein remaining % ≤ 80%)”; for `CS(=O)(=O)c1cccc(CNc2nc(Nc3ccc(N4CCN(Cc5ccnc(N6CCC(=O)NC6=O)c5)CC4)cc3)ncc2C(F)(F)F)c1` [GT-07462, 1-(4-((4-(4-((4-((3-(methylsulfonyl)benzyl)amino)-5-(trifluoromethyl)pyrimidin-2-yl)amino)phenyl)piperazin-1-yl)methyl)pyridin-2-yl)dihydropyrimidine-2,4(1H,3H)-dione] it is “A (A is defined as 0% ≤ substrate protein remaining % ≤ 80%)”. The value for `CNC(=O)c1ccccc1Nc1cc(Nc2cc(C)c(N3CCN(Cc4ccc(C5CCC(=O)NC5=O)c(F)c4)CC3)cc2OC(C)C)ncc1C(F)(F)F` (centres unmarked) [GT-03947, 2-((2-((4-(4-(4-(2,6-dioxopiperidin-3-yl)-3-fluorobenzyl)piperazin-1-yl)-2-isopropoxy-5-methylphenyl)amino)-5-(trifluoromethyl)pyridin-4-yl)amino)-N-methylbenzamide] was “A (A is defined as 0% ≤ substrate protein remaining % ≤ 80%)”; that for `CNC(=O)c1ccccc1Nc1cc(Nc2ccc(N3CCC(N(C)Cc4cccc(NC5CCC(=O)NC5=O)c4)CC3)cc2OC)ncc1C(F)(F)F` (centres unmarked) [GT-07652, 2-((2-((4-(4-((3-((2,6-dioxopiperidin-3-yl)amino)benzyl)(methyl)amino)piperidin-1-yl)-2-methoxyphenyl)amino)-5-(trifluoromethyl)pyridin-4-yl)amino)-N-methylbenzamide] was “A (A is defined as 0% ≤ substrate protein remaining % ≤ 80%)”; that for `CS(=O)(=O)c1cccc(CNc2nc(Nc3ccc(N4CCN(Cc5ccc(C6CCC(=O)NC6=O)cn5)CC4)cc3)ncc2C(F)(F)F)c1` (centres unmarked) [GT-07466, 3-(6-((4-(4-((4-((3-(methylsulfonyl)benzyl)amino)-5-(trifluoromethyl)pyrimidin-2-yl)amino)phenyl)piperazin-1-yl)methyl)pyridin-3-yl)piperidine-2,6-dione] was “A (A is defined as 0% ≤ substrate protein remaining % ≤ 80%)”. The value for `CNC(=O)c1ccccc1Nc1cc(Nc2cc(C)c(C3CCN(Cc4cncc(C5CCC(=O)NC5=O)c4)CC3)cc2OC(C)C)ncc1C(F)(F)F` (centres unmarked) [GT-07678, 2-((2-((4-(1-((5-(2,6-dioxopiperidin-3-yl)pyridin-3-yl)methyl)piperidin-4-yl)-2-isopropoxy-5-methylphenyl)amino)-5-(trifluoromethyl)pyridin-4-yl)amino)-N-methylbenzamide] was “A (A is defined as 0% ≤ substrate protein remaining % ≤ 80%)”; that for `CS(=O)(=O)c1cccc(CNc2nc(Nc3ccc(N4CCN(Cc5ccc(C6CCC(=O)NC6=O)c(F)c5)CC4)cc3)ncc2C(F)(F)F)c1` (centres unmarked) [GT-03823, 3-(2-fluoro-4-((4-(4-((4-((3-(methylsulfonyl)benzyl)amino)-5-(trifluoromethyl)pyrimidin-2-yl)amino)phenyl)piperazin-1-yl)methyl)phenyl)piperidine-2,6-dione] was “A (A is defined as 0% ≤ substrate protein remaining % ≤ 80%)”; that for `CN(c1nccnc1CNc1nc(Nc2ccc(N3CCN(Cc4ccc(N5CCC(=O)NC5=O)cc4)CC3)cc2)ncc1C(F)(F)F)S(C)(=O)=O` [GT-07400, N-(3-(((2-((4-(4-(4-(2,4-dioxotetrahydropyrimidin-1(2H)-yl)benzyl)piperazin-1-yl)phenyl)amino)-5-(trifluoromethyl)pyrimidin-4-yl)amino)methyl)pyrazin-2-yl)-N-methylmethanesulfonamide] was “A (A is defined as 0% ≤ substrate protein remaining % ≤ 80%)”. For the compound `CNC(=O)c1ccccc1Nc1cc(Nc2cc(C)c(C3CCN(Cc4ccc(N5CCC(=O)NC5=O)nc4)CC3)cc2OC(C)C)ncc1C(F)(F)F` [GT-07670, 2-((2-((4-(1-((6-(2,4-dioxotetrahydropyrimidin-1(2H)-yl)pyridin-3-yl)methyl)piperidin-4-yl)-2-isopropoxy-5-methylphenyl)amino)-5-(trifluoromethyl)pyridin-4-yl)amino)-N-methylbenzamide], the “Degradation … (substrate protein remaining %)” value is reported as “A (A is defined as 0% ≤ substrate protein remaining % ≤ 80%)”. In the case of `CN(c1nccnc1CNc1nc(Nc2ccc(N3CCN(Cc4cccc(N5CCC(=O)NC5=O)c4)CC3)cc2)ncc1C(F)(F)F)S(C)(=O)=O` [GT-07401, N-(3-(((2-((4-(4-(3-(2,4-dioxotetrahydropyrimidin-1(2H)-yl)benzyl)piperazin-1-yl)phenyl)amino)-5-(trifluoromethyl)pyrimidin-4-yl)amino)methyl)pyrazin-2-yl)-N-methylmethanesulfonamide], the “Degradation … (substrate protein remaining %)” value is “A (A is defined as 0% ≤ substrate protein remaining % ≤ 80%)”.
